{"source": "patent US10799467B2", "about": "“Use of the phytocannabinoid cannabidivarin (CBDV) in the treatment of epilepsy” (GW Pharma Limited, priority 2010, dated 2020)", "key": {"[1]": {"test_system": "epileptiform burst activity in hippocampal slices (Mg2+-free model)", "assay": "Mg2+-free in vitro epileptiform model in hippocampal brain slices (multi-electrode array)", "type": "cell-based, Wistar rats", "procedure": "Use of isolated CBDV in two in vitro epileptiform models in hippocampal brain slices\nHippocampal slices were produced acutely from P>21 Wistar rats and activity recorded by multi-electrode arrays (MEA).\nTo induce epileptiform activity, either Mg^2+ was removed (Mg^2+-free model) or 100 μM 4-aminopyridine was added (4-AP model). 30 min after epileptiform burst activity was established, CBDV was added cumulatively (1, 10, 100 μM; 30 min each).\nThe effects of CBDV on epileptiform burst amplitude and duration were measured (Table 2.1)."}, "motor function": {"test_system": "motor function", "assay": "Linearly accelerating rotarod test of motor function", "type": "in vivo, rats", "details": "for time remaining on the rotarod (latency to fall): 60 minutes after administration, vehicle 111.6 seconds", "procedure": "Each animal received either CBDV (100 or 200 mg/kg, n=10 for each group) or vehicle (2:1:17 Cremophor:ethanol:saline [n=12] or saline [n=11]) on a given experimental day. Experimental test days were separated by a two day rest period to allow for clearance of previous compounds. The order of drug administration was randomised using a standard Latin square design.\n60 minutes after CBDV or vehicle administration, animals were placed on a linearly accelerating rotarod (Panlab/Harvard Apparatus, Holliston, USA) that increased in speed from 4 to 40 rpm over a 300 second period. An accelerating protocol was employed to eliminate the need for habituation to the rotarod, minimising divergence in the results obtained for each animal owing to disproportionate improvements in performance. Each test ended when the animal fell from the rotarod, with each animal performing three accelerating rotarod runs per experimental day. Animals were allowed a 5 minute recovery between tests to prevent fatigue-induced declines in performance. Mean latency in seconds to fall from the rotarod was compared between vehicle control and CBDV groups to assess motor function.\nTo assess whether there were significant effects on motor function between the two different vehicle treatments, we subjected the data to Mann-Whitney U test. Lack of significance in this analysis would allow us to combine vehicle groups thereby reducing duration of testing (i.e. each rat would undertake only one vehicle treatment test day rather than two). For analysis of CBDV effects on motor function, data were subjected to a between-subjects 1-way ANOVA with drug concentration as the main factor. In all cases, P≤0.05 was considered to be significant."}, "PTZ-induced seizures": {"test_system": "PTZ-induced seizures", "assay": "CBDV with standard anti-epileptic drugs in the PTZ model of generalised seizures", "type": "in vivo, Wistar rats", "procedure": "As described in Example 2 above. Varying doses of the SAED's ethosuximide and valproate were tested in combination to isolated CBDV at a dose of 200 mg/kg."}, "MES-induced seizure": {"test_system": "MES-induced seizure", "assay": "Maximal electroshock seizure (MES) model of epilepsy", "type": "in vivo, Mouse/ICR", "details": "for Incidence of Tonic convulsion: Table 10.2, 10 mice per group, vehicle 9/10", "procedure": "The vehicle used in this study was 2:1:17 (ethanol:Cremophor:0.9% ^w/v, NaCl). The test compounds used were cannabidiol (CBD) and cannabidivarin (CBDV). These were made to a solution at the highest concentration; these were then dissolved in ethanol before combination with Cremophor and 0.9% NaCl in the proportion described above. The CBD or CBDV were administered intraperitoneally at a volume of 10 ml/kg body weight. The SAED valproic acid (VBA) was dissolved in saline.\nAnimal Species/Strain: Mouse/ICR, Microbiological grade: SPF, Supplier: SLC Japan, Inc. […] Temperature: 23±2° C., Humidity: 60±10%, Light conditions: 7 AM to 7 PM for the light period, 7 PM to 7 AM for the dark period. Chow and water: Free access to CRF-1 (Oriental Yeast Co, Ltd) and tap water.\nOne day before each experiment, mice were weighed and randomized into several groups in each test. On the morning of the experiment day, body weight was measured in order to calculate the administration volume of each animal. Vehicle, CBD, CBDV or valproic acid sodium salt was interperitoneally administered 30 minutes before electric stimuli. Maximal electroshock seizures (MES) in mice was induced by a stimulator (UGO BASILE ECT UNIT 7801, Italia) using a current of 30 mA delivered with a pulse frequency of 100 Hz for 200 msec through earlap electrodes.\nAll statistical analyses were performed using SAS Software for Windows, Release 9.1 (SAS Institute Japan). The difference of the number (hindlimb extension or deaths) in each group was assessed using two-tailed Fisher's exact test."}, "[2]": {"test_system": "pilocarpine-induced seizures", "assay": "Pilocarpine model of epilepsy", "type": "in vivo", "details": "CBDV 50 and 100 mg/kg IP; pilocarpine 380 mg/kg IP", "procedure": "Isolated CBDV was injected intra-peritoneally (IP) in the standard vehicle (1:1:18 ethanol:Cremophor:0.9%^w/v NaCl) at doses of 50, 100 and 200 mg/kg alongside animals that received vehicle alone at a matched volume. 15 minutes later methylscopolamine (1 mg/kg; to reduce peripheral muscarinic effects of pilocarpine) was administered followed, 45 minutes later by pilocarpine (380 mg/kg, IP) administration."}, "[3]": {"test_system": "pilocarpine-induced seizures", "assay": "CBDV with standard anti-epileptic drugs in the pilocarpine model of epilepsy", "type": "in vivo", "source_text": "These two drugs are representative of two classes of anti-convulsants which have different mechanisms of action."}, "[4]": {"details": "valproate (varying doses) co-administered with CBDV 200 mg/kg"}, "[5]": {"details": "CBDV 200 mg/kg with valproate at various doses"}}, "note": "Marks after values point to notes of the source that are not given here.", "data": [{"smiles": "C=C(C)[C@@H]1CCC(C)=C[C@H]1c1c(O)cc(CCC)cc1O", "note": "[CBDV, Cannabidivarin]", "values": [{"measurement": "Burst amplitude (% of control) CA1", "setting": "[1]; CBDV 1 μM", "result": "82.23 ± 10.4 % of control"}, {"measurement": "Burst duration (% of control) CA1", "setting": "[1]; CBDV 1 μM", "result": "99.3 ± 4.5 % of control"}, {"measurement": "Burst amplitude (% of control) CA3", "setting": "[1]; CBDV 1 μM", "result": "112.7 ± 13.7 % of control"}, {"measurement": "Burst duration (% of control) CA3", "setting": "[1]; CBDV 1 μM", "result": "101.7 ± 2.3 % of control"}, {"measurement": "Burst amplitude (% of control) DG", "setting": "[1]; CBDV 1 μM", "result": "89.8 ± 8.6 % of control"}, {"measurement": "Burst duration (% of control) DG", "setting": "[1]; CBDV 1 μM", "result": "90.6 ± 4.5 % of control"}, {"measurement": "Burst amplitude (% of control) CA1", "setting": "[1]; CBDV 10 μM", "result": "79.9 ± 6.9 % of control"}, {"measurement": "Burst duration (% of control) CA1", "setting": "[1]; CBDV 10 μM", "result": "91.2 ± 3.8 % of control"}, {"measurement": "Burst amplitude (% of control) CA3", "setting": "[1]; CBDV 10 μM", "result": "104.8 ± 10.3 % of control"}, {"measurement": "Burst duration (% of control) CA3", "setting": "[1]; CBDV 10 μM", "result": "93.9 ± 4.1 % of control"}, {"measurement": "Burst amplitude (% of control) DG", "setting": "[1]; CBDV 10 μM", "result": "86.4 ± 3.6 % of control"}, {"measurement": "Burst duration (% of control) DG", "setting": "[1]; CBDV 10 μM", "result": "92.0 ± 3.2 % of control"}, {"measurement": "Burst amplitude (% of control) CA1", "setting": "[1]; CBDV 100 μM", "result": "80.4 ± 8.0 % of control"}, {"measurement": "Burst duration (% of control) CA1", "setting": "[1]; CBDV 100 μM", "result": "74.0 ± 5.8 % of control"}, {"measurement": "Burst amplitude (% of control) CA3", "setting": "[1]; CBDV 100 μM", "result": "102.9 ± 13.0 % of control"}, {"measurement": "Burst duration (% of control) CA3", "setting": "[1]; CBDV 100 μM", "result": "78.5 ± 6.6 % of control"}, {"measurement": "Burst amplitude (% of control) DG", "setting": "[1]; CBDV 100 μM", "result": "79.5 ± 5.6 % of control"}, {"measurement": "Burst duration (% of control) DG", "setting": "[1]; CBDV 100 μM", "result": "75.6 ± 5.4 % of control"}, {"measurement": "time remaining on the rotarod (latency to fall)", "setting": "motor function; 100 mg/kg CBDV", "result": 86.6, "unit": "s"}, {"measurement": "time remaining on the rotarod (latency to fall)", "setting": "motor function; 200 mg/kg CBDV", "result": 110.0, "unit": "s"}, {"measurement": "effect on the latency to fall compared to vehicle", "setting": "motor function; CBDV at any dose (100, 200 mg/kg), P=0.253", "result": "no effect"}, {"measurement": "severity of the epilepsy, CBDV compared with SAED", "setting": "PTZ-induced seizures; CBDV 200 mg/kg", "result": "lessen the severity of the epilepsy to a greater degree than the existing epileptic drug valproate"}, {"measurement": "mortality (independent effect when co-administered)", "setting": "PTZ-induced seizures; [4]", "result": "significant decreases"}, {"measurement": "onset latency (independent effect when co-administered)", "setting": "PTZ-induced seizures; [4]", "result": "significant decreases"}, {"measurement": "seizure severity (independent effect when co-administered)", "setting": "PTZ-induced seizures; [4]", "result": "significant decreases"}, {"measurement": "Incidence of Tonic convulsion", "setting": "MES-induced seizure; 50 mg/kg i.p.", "result": "9/10"}, {"measurement": "Incidence of Tonic convulsion", "setting": "MES-induced seizure; 100 mg/kg i.p.", "result": "3/10*"}, {"measurement": "Incidence of Tonic convulsion", "setting": "MES-induced seizure; 200 mg/kg i.p.", "result": "3/10*"}, {"measurement": "inhibition of the expression of hindlimb extension", "setting": "MES-induced seizure; CBDV 100 and 200 mg/kg IP", "result": "significantly inhibited"}, {"measurement": "mortality", "setting": "[2]", "result": "decreased"}, {"measurement": "seizure severity", "setting": "[3]; CBDV 200 mg/kg with phenobarbital at various doses", "result": "significantly decreases"}, {"measurement": "mortality (independent effect)", "setting": "[3]; [5]", "result": "significant decrease"}, {"measurement": "seizure severity (independent effect)", "setting": "[3]; [5]", "result": "independent and positive effects"}, {"measurement": "bilateral seizure incidence", "setting": "[3]; CBDV 200 mg/kg, particularly with high dose Valproate (250 mg/kg)", "result": "significantly decreased"}, {"measurement": "CBDV interaction (alone) with clonic tonic seizure", "setting": "[3]; CBDV 200 mg/kg, valproate study", "result": "statistically significant"}]}]}
